Calls of active or inactive are those of the source. No cut-off for these calls is given here.

In experiment [1] the test system is HeLa. The experiment in a line: Induction of apoptosis in human HeLa cells assessed as viable cells at 0.5 uM after 48 hrs by annexin-v-PI staining based flow cytometry (reference value: 98.4%). The class given is functional. The note with it: read-out: Activity. A general note: A flow cytometer gives signals particle by particle.
In experiment [2] the test system is HeLa. Kind of experiment: Cell cycle arrest in human HeLa cells assessed as accumulation at G2/M phase at 0.1 microM after 48 hrs by flow cytometry. The experiment is classed as functional.
The subject of experiment [3] is HeLa. The experiment in a line: Induction of apoptosis in human HeLa cells assessed as early apoptotic cells at 0.1 uM after 48 hrs by annexin-v-PI staining based flow cytometry (reference value: 1.44%). The experiment is classed as functional.
For experiment [4], the system named is MDA-MB-231. The experiment in a line: Antiproliferative activity against human MDA-MB-231 cells after 48 hrs by MTT assay. The class given is functional. The note with it: MDA-MB-231, 48 h.
Experiment [5] relates to HeLa. The experiment in a line: Induction of apoptosis in human HeLa cells assessed as late apoptotic cells at 0.1 uM after 48 hrs by annexin-v-PI staining based flow cytometry (reference value: 0.08%). The experiment is classed as functional.
For experiment [6], the system named is HeLa. The experiment in a line: Induction of microtubule disruption in human HeLa cells assessed as microtubule heavily shrunk around centre of cells at 0.5 microM after 48 hrs by hoechst-33342-staining based confocal microscopy analysis. The experiment is classed as cell-based.
For experiment [7], the system named is HeLa. Kind of experiment: Induction of apoptosis in human HeLa cells assessed as late apoptotic cells at 0.5 uM after 48 hrs by annexin-v-PI staining based flow cytometry (reference value: 0.08%). The class given is functional.
The test system of experiment [8] is HeLa. The experiment in a line: Induction of apoptosis in human HeLa cells after 48 hrs by annexin-v-PI staining based flow cytometry. The experiment is classed as functional, cell-based.
The target in experiment [9] is Tubulin. The experiment in a line: Inhibition of tubulin polymerization (unknown origin) by fluorescence analysis. The class given is protein-complex assay, Homo sapiens.
Experiment [10] concerns HeLa. Kind of experiment: Induction of microtubule disruption in human HeLa cells assessed as destabilized microtubule network at 0.05,0.1, 0.5 microM after 48 hrs by hoechst-33342-staining based confocal microscopy analysis. The experiment is classed as cell-based.
The subject of experiment [11] is HeLa. Kind of experiment: Induction of apoptosis in human HeLa cells assessed as late apoptotic cells at 0.05 uM after 48 hrs by annexin-v-PI staining based flow cytometry (reference value: 0.08%). The class given is functional.
In experiment [12] the test system is HeLa. Kind of experiment: Induction of apoptosis in human HeLa cells assessed as early apoptotic cells at 0.05 uM after 48 hrs by annexin-v-PI staining based flow cytometry (reference value: 1.44%). The experiment is classed as functional.
The subject of experiment [13] is HeLa. Kind of experiment: Induction of apoptosis in human HeLa cells assessed as late necrotic cells at 0.05 uM after 48 hrs by annexin-v-PI staining based flow cytometry (reference value: 0.09%). The class given is functional.
Experiment [14] concerns HeLa. The experiment in a line: Induction of apoptosis in human HeLa cells assessed as late necrotic cells at 0.5 uM after 48 hrs by annexin-v-PI staining based flow cytometry (reference value: 0.09%). The class given is functional.
Experiment [15] relates to HeLa. Kind of experiment: Cell cycle arrest in human HeLa cells assessed as accumulation at G2/M phase at 0.5 microM after 48 hrs by flow cytometry. The class given is functional.
Experiment [16] can be described thus: Antiproliferative activity against human PC3 cells after 48 hrs by MTT assay. The class given is functional. Conditions: PC-3, 48 h. On the technique in general: Formazan colour is commonly taken as a measure of viable cells.
Experiment [17] has as its system HeLa. Kind of experiment: Induction of apoptosis in human HeLa cells assessed as viable cells at 0.05 uM after 48 hrs by annexin-v-PI staining based flow cytometry (reference value: 98.4%). The experiment is classed as functional. The note with it: read-out: Activity.
The nature of experiment [18]: Antiproliferative activity against human Bel7402 cells after 48 hrs by MTT assay. Conditions: Bel-7402, 48 h. The experiment is classed as functional.
The subject of experiment [19] is A549. The experiment in a line: Antiproliferative activity against human A549 cells after 48 hrs by MTT assay. Conditions: A549, 48 h. The experiment is classed as functional.
Experiment [20] relates to HeLa. The experiment in a line: Antiproliferative activity against human HeLa cells after 48 hrs by MTT assay. The class given is functional.
Experiment [21] concerns HeLa. Kind of experiment: Induction of apoptosis in human HeLa cells assessed as viable cells at 0.1 uM after 48 hrs by annexin-v-PI staining based flow cytometry (reference value: 98.4%). Conditions: read-out: Activity. The class given is functional.
The subject of experiment [22] is HeLa. The experiment in a line: Induction of apoptosis in human HeLa cells assessed as early apoptotic cells at 0.5 uM after 48 hrs by annexin-v-PI staining based flow cytometry (reference value: 1.44%). The experiment is classed as functional.
Experiment [23] relates to HeLa. The experiment in a line: Cell cycle arrest in human HeLa cells assessed as accumulation at G2/M phase after 48 hrs by flow cytometry. The experiment is classed as functional, cell-based.
The subject of experiment [24] is HeLa. Kind of experiment: Cell cycle arrest in human HeLa cells assessed as accumulation at G2/M phase at 0.05 microM after 48 hrs by flow cytometry. The experiment is classed as functional.
Experiment [25] deals with HeLa. The experiment in a line: Induction of microtubule disruption in human HeLa cells assessed as irregular cytoplasm and chromosomes at 0.5 microM after 48 hrs by hoechst-33342-staining based confocal microscopy analysis. The experiment is classed as cell-based.
For experiment [26], the system named is HeLa. The experiment in a line: Induction of apoptosis in human HeLa cells assessed as late necrotic cells at 0.1 uM after 48 hrs by annexin-v-PI staining based flow cytometry (reference value: 0.09%). The experiment is classed as functional.

What is called GI50 is the concentration that inhibits growth by half. Read a high GI50 as lower sensitivity of the cells. Usually IC50 stands for the concentration that gives 50% inhibition. As to `COc1ccc(/C=C2\Cc3c(cc(OC)c(OC)c3OC)C2=O)cc1O`, in [1], the viability at 0.5 µM came to 40.6%. Moreover, the Activity in [2] was 35.2%; in experiment [3] it was 19%; in [5] it was 2.57%; in experiment [7] it was 12.6%; in [8], “Dose-dependent effect”; in [11], 0.82%. For the same compound, the Activity in experiment [12] is 6.98%; in [13], 0.38%; in [14], 4.4%; in experiment [15], 46.1%; in experiment [22], 42.4%; in experiment [23], “Dose-dependent effect”. Besides, the results for the Activity in [24] and in experiment [26] were 23.2% and 1.03%, respectively. Further, the GI50 stood at 0.57 µM in [4]; 0.213 µM in experiment [16]; 0.307 µM in [18]; 0.249 µM in [19]; 0.172 µM in experiment [20]. Also, the outcome in experiment [6], in experiment [10] and in experiment [25] was Active. Besides, inhibition in experiment [9] was half-maximal at 7.56 µM (IC50). The viability at 0.05 µM in experiment [17] was found to be 91.8%. Further, in experiment [21], the viability at 0.1 µM was 77.4%.

Turning to `COc1cc2c(cc1OC)C(=O)/C(=C/c1cc(OC)c(OC)c(OC)c1)C2`, the GI50 in [4], in experiment [16], in experiment [18], in [19] and in experiment [20] was over 10 µM each time.

Take `COc1ccc(/C=C2\Cc3c(cc(OC)c(OC)c3OC)C2=O)cc1Br`: the GI50 came to 0.678 µM in experiment [4]; 0.389 µM in experiment [16]; 0.563 µM in experiment [18]; 0.41 µM in experiment [19]; 0.356 µM in [20]. The IC50 in experiment [9] was determined as 9.05 µM.

For `COc1ccc(/C=C2\CCc3c(cc(OC)c(OC)c3OC)C2=O)cc1F`, the GI50 in [4] worked out at 29.4 µM; in experiment [16], 27.6 µM; in experiment [18] it was 19.3 µM; in [19], 15.4 µM; in [20], 10.2 µM.

For `COc1cc(/C=C2\Cc3c(cc(OC)c(OC)c3OC)C2=O)cc(OC)c1OC`, the 50% growth inhibitory concentration (GI50) is 5.84 µM in [4]; 4.99 µM in [16]; 1.58 µM in experiment [18]; 2.79 µM in [19]; 2.37 µM in [20].

As to `COc1cc2c(cc1O)C(=O)/C(=C/c1cc(OC)c(OC)c(OC)c1)C2`, the GI50 in experiment [4], in [16], in experiment [18], in experiment [19] and in [20] was over 10 µM in each case.

With `COc1ccc(/C=C2\Cc3c(cc(OC)c(OC)c3OC)C2=O)cc1N`, the GI50 in [4] was 0.485 µM; in [16] it was 0.456 µM; in experiment [18], 0.45 µM; in experiment [19] it was 0.212 µM; in [20] it was 0.169 µM. The compound also yielded an IC50 in experiment [9] of 8.64 µM.

`COc1cc2c(c(OC)c1OC)C/C(=C\c1cc(OC)c(OC)c(OC)c1OC)C2=O`: the concentration for 50% growth inhibition (GI50) in [4], in [16], in experiment [18], in experiment [19] and in experiment [20] was over 10 µM in each case.

For the compound `COc1cc2c(cc1O)C(=O)/C(=C/c1ccc(OC)c(OC)c1OC)C2`, the concentration for 50% growth inhibition (GI50) in experiment [4] was 2.41 µM; in [16], 3.14 µM; in experiment [18] it was 9.65 µM; in experiment [19] it was 3.42 µM; in [20], 1.59 µM.

Regarding `COc1ccc(/C=C2\Cc3cc(OC)c(OC)c(OC)c3C2=O)cc1O`, the GI50 in experiment [4], in experiment [16], in [18], in [19] and in experiment [20] was over 10 µM each time.

Turning to `COc1cc(/C=C2\Cc3cc(OC)c(OC)c(OC)c3C2=O)cc(OC)c1OC`, the GI50 in experiment [4], in experiment [16], in experiment [18], in experiment [19] and in experiment [20] was over 10 µM each time.

Consider `COc1ccc(/C=C2\Cc3cc(OC)c(OC)c(OC)c3C2=O)cc1`, for which the GI50 in experiment [4], in [16], in [18], in experiment [19] and in [20] was over 10 µM each time.

For the compound `COc1ccc(/C=C2\Cc3c(cc(OC)c(OC)c3OC)C2=O)cc1OC`, the GI50 in experiment [4] was determined as 9.85 µM; in experiment [16], 7.47 µM; in [18], 10.5 µM; in experiment [19], 9.74 µM; in experiment [20], 8.56 µM.

Take `COc1cc2c(cc1OC)C(=O)/C(=C/c1ccc(OC)c(OC)c1OC)C2`: the GI50 in experiment [4], in experiment [16], in experiment [18], in [19] and in experiment [20] was over 10 µM in each case.

In the case of `COc1ccc(/C=C2\Cc3cc(OC)c(OC)c(OC)c3C2=O)cc1N`, the GI50 in experiment [4], in experiment [16], in experiment [18], in [19] and in experiment [20] was over 10 µM in each case.

As for `COc1ccc(/C=C2\Cc3cc(OC)c(OC)c(OC)c3C2=O)cc1[N+](=O)[O-]`, the GI50 in experiment [4], in [16], in experiment [18], in [19] and in experiment [20] was over 10 µM in each case.

`COc1ccc(/C=C2\Cc3c(cc(OC)c(OC)c3OC)C2=O)cc1`: the GI50 in experiment [4] was found to be 0.429 µM; in experiment [16], 0.75 µM; in [18] it was 0.56 µM; in experiment [19], 0.273 µM; in experiment [20] it was 0.485 µM. In addition, in [9], it took 9.62 µM to reach half-maximal inhibition (IC50).

As to `COc1ccc(/C=C2\Cc3c(cc(OC)c(OC)c3OC)C2=O)cc1F`, the 50% growth inhibitory concentration (GI50) in experiment [4] turned out to be 0.521 µM; in experiment [16], 0.277 µM; in experiment [18] it was 0.491 µM; in [19], 0.298 µM; in experiment [20], 0.258 µM. Besides, in [9], the concentration for half-maximal inhibition (IC50) is 8.92 µM.

With `COc1ccc(/C=C\c2cc(OC)c(OC)c(OC)c2)cc1O` [COMBRETASTATIN A4], the GI50 is 0.021 µM in [4]; 0.014 µM in experiment [16]; 0.012 µM in [18]; 0.018 µM in experiment [19]; 0.0028 µM in [20].

`COc1ccc(/C=C2\Cc3c(cc(OC)c(OC)c3OC)C2=O)cc1[N+](=O)[O-]`: the GI50 in experiment [4] is 3.49 µM; in experiment [16] it was 1.56 µM; in [18], 0.95 µM; in [19], 0.77 µM; in experiment [20], 0.79 µM.

On to `COc1ccc(/C=C2\CCc3c(cc(OC)c(OC)c3OC)C2=O)cc1`, for which the GI50 was determined as 38.7 µM in [4]; 19.6 µM in experiment [16]; 25.4 µM in [18]; 18.9 µM in experiment [19]; 12.4 µM in experiment [20].

The record behind these values is ChEMBL document CHEMBL3739423, “Synthesis, biological evaluation and mechanism study of a class of benzylideneindanone derivatives as novel anticancer agents” (Medchemcomm, 2015).
